Test results published in the supplement of paper PMC10627819.
Values after ≈ are worked out from the molar mass of the structure shown.

Tests used:
S. aureus DSM 20231 [1] = system: S. aureus DSM 20231
S. pneumoniae D39V [2] = system: S. pneumoniae D39V
S. aureus Newman [3] = system: S. aureus Newman
S. aureus DSM 20231 [4] = experiment: fitness (endpoint OD595 vs no drug) (fraction); higher = more growth
Summary of the method: (§1)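 Fitness compares growth at the stationary-phase transition with the robust mean of no-drug control wells, as a ratio of optical densities. The ratio is capped at 1. Wells of 384-well plates held 30 µl, or 55 µl for S. pneumoniae, inoculated at OD595 0.01. Readings at OD595 every 30 min for 14 h at 37 °C were corrected against the first reading.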

S. pneumoniae D39V [5] = experiment: as above
Summary of the method: as §1

S. aureus Newman [6] = experiment: as above
Summary of the method: as §1

B. subtilis 168 [7] = system: B. subtilis 168
B. subtilis 168 [8] = experiment: fitness (endpoint OD595 vs no drug) (fraction); higher = more growth
Summary of the method: as §1

S. aureus DSM 20231 [9] = experiment: Bliss interaction score (quartile over a dose matrix) (fitness difference); higher = more antagonism (negative = synergy)
Summary of the method: (§2)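 OD595 was read at entry into stationary phase and expressed relative to the robust mean of the no-drug wells on the same plate, capped at 1. The resulting ratio is the fitness value. The Bliss score, observed fitness minus product-based expected fitness with single-drug fitness inferred from combinations, is summarised by quartiles over technical, biological and donor/recipient replicates.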

B. subtilis 168 [10] = experiment: as above
Summary of the method: as §2

S. pneumoniae D39V [11] = experiment: as above
Summary of the method: as §2

S. aureus Newman [12] = experiment: as above
Summary of the method: as §2
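Wherever Bliss interaction score (quartile over a dose matrix) is given: first quartile when negative (synergy) and third quartile when positive (antagonism).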

CC1(C)S[C@@H]2[C@H](NC(=O)[C@H](N)c3ccc(O)cc3)C(=O)N2[C@H]1C(=O)O [Amoxicillin]
Conditions | MIC [µg/mL]
S. aureus DSM 20231 [1] | 0.556 (≈ 1.52 µM)
S. aureus Newman [3] | 0.25 (≈ 0.684 µM)
S. pneumoniae D39V [2] | 0.004 (≈ 0.0109 µM)

fitness
Conditions | 0.0008 µg/mL | 0.0015 µg/mL | 0.003 µg/mL | 0.0625 µg/mL | 0.125 µg/mL | 0.25 µg/mL | 0.5 µg/mL
S. aureus DSM 20231 [4] | – | – | – | 0.606 | 0.504 | 0.0502 | 0.0082
S. aureus Newman [6] | – | – | – | 0.896 | 0.878 | 0.85 | 0.865
S. pneumoniae D39V [5] | 0.972 | 0.945 | 0.923 | – | – | – | –

CO/N=C(\C(=O)N[C@@H]1C(=O)N2C(C(=O)[O-])=C(C[N+]3(C)CCCC3)CS[C@H]12)c1csc(N)n1 [Cefepime]
Conditions | MIC [µg/mL]
B. subtilis 168 [7] | 0.25 (≈ 0.52 µM)
S. aureus DSM 20231 [1] | 0.556 (≈ 1.16 µM)
S. aureus Newman [3] | 0.556 (≈ 1.16 µM)
S. pneumoniae D39V [2] | 0.031 (≈ 0.0645 µM)

Conditions | fitness
B. subtilis 168 [8], 0.0625 µg/mL | 0.872
B. subtilis 168 [8], 0.125 µg/mL | 0.729
B. subtilis 168 [8], 0.25 µg/mL | 0.432
S. aureus DSM 20231 [4], 0.125 µg/mL | ≥ 1
S. aureus DSM 20231 [4], 0.25 µg/mL | 0.996
S. aureus DSM 20231 [4], 0.5 µg/mL | 0.935
S. aureus Newman [6], 0.125 µg/mL | 0.924
S. aureus Newman [6], 0.25 µg/mL | 0.872
S. aureus Newman [6], 0.5 µg/mL | 0.784
S. pneumoniae D39V [5], 0.0078 µg/mL | ≥ 1
S. pneumoniae D39V [5], 0.0155 µg/mL | 0.993
S. pneumoniae D39V [5], 0.031 µg/mL | 0.696

CCCCCCCCCC(=O)N[C@@H](Cc1c[nH]c2ccccc12)C(=O)N[C@H](CC(N)=O)C(=O)N[C@@H](CC(=O)O)C(=O)N[C@@H]1C(=O)NCC(=O)N[C@@H](CCCN)C(=O)N[C@@H](CC(=O)O)C(=O)N[C@H](C)C(=O)N[C@@H](CC(=O)O)C(=O)NCC(=O)N[C@H](CO)C(=O)N[C@@H]([C@H](C)CC(=O)O)C(=O)N[C@@H](CC(=O)c2ccccc2N)C(=O)O[C@@H]1C [Daptomycin]
Conditions | MIC [µg/mL]
B. subtilis 168 [7] | 0.5 (≈ 0.309 µM)
S. aureus DSM 20231 [1] | 2 (≈ 1.23 µM)
S. aureus Newman [3] | 1 (≈ 0.617 µM)
S. pneumoniae D39V [2] | 8 (≈ 4.94 µM)

fitness
Conditions | 0.125 µg/mL | 0.25 µg/mL | 0.5 µg/mL | 1 µg/mL | 2 µg/mL | 4 µg/mL
B. subtilis 168 [8] | 0.941 | 0.944 | 0.934 | – | – | –
S. aureus DSM 20231 [4] | 0.998 | 0.989 | ≥ 1 | ≥ 1 | ≥ 1 | –
S. aureus Newman [6] | 0.954 | 0.964 | 0.964 | 0.98 | ≥ 1 | –
S. pneumoniae D39V [5] | – | – | – | 0.875 | 0.889 | 0.853

CCCCCCCCCC(=O)N[C@@H](Cc1c[nH]c2ccccc12)C(=O)N[C@H](CC(N)=O)C(=O)N[C@@H](CC(=O)O)C(=O)N[C@@H]1C(=O)NCC(=O)N[C@@H](CCCN)C(=O)N[C@@H](CC(=O)O)C(=O)N[C@H](C)C(=O)N[C@@H](CC(=O)O)C(=O)NCC(=O)N[C@H](CO)C(=O)N[C@@H]([C@H](C)CC(=O)O)C(=O)N[C@@H](CC(=O)c2ccccc2N)C(=O)O[C@@H]1C [Daptomycin] + Cc1onc(-c2ccccc2)c1C(=O)N[C@@H]1C(=O)N2[C@@H]1SC(C)(C)[C@@H]2C(=O)O [Oxacillin]
fitness, one replicate
Conditions | first compound 0.125 µg/mL | first compound 0.25 µg/mL | first compound 0.5 µg/mL | first compound 1 µg/mL
B. subtilis 168 [8], partner 0.0078 µg/mL | – | 0.878 | 0.894 | 0.662
B. subtilis 168 [8], partner 0.0155 µg/mL | – | 0.975 | 0.87 | 0.657
B. subtilis 168 [8], partner 0.031 µg/mL | – | 0.888 | 0.832 | 0.302
B. subtilis 168 [8], partner 0.075 µg/mL | 0.618 | 0.686 | 0.395 | –
B. subtilis 168 [8], partner 0.15 µg/mL | 0.0439 | 0.032 | 0.0273 | –
B. subtilis 168 [8], partner 0.3 µg/mL | 0.0398 | 0.0692 | 0.0429 | –
S. aureus DSM 20231 [4], partner 0.0156 µg/mL | 0.728 | 0.737 | – | –
S. aureus DSM 20231 [4], partner 0.0312 µg/mL | 0.677 | 0.722 | – | –
S. aureus DSM 20231 [4], partner 0.0625 µg/mL | 0.531 | 0.515 | – | –

fitness
Conditions | first compound 0.125 µg/mL | first compound 0.25 µg/mL | first compound 0.5 µg/mL | first compound 1 µg/mL | first compound 2 µg/mL | first compound 4 µg/mL
B. subtilis 168 [8], partner 0.002 µg/mL | 0.979 | 0.99 | 0.938 | – | – | –
B. subtilis 168 [8], partner 0.004 µg/mL | 0.996 | 0.959 | 0.877 | – | – | –
B. subtilis 168 [8], partner 0.008 µg/mL | 0.899 | 0.921 | 0.856 | – | – | –
S. aureus DSM 20231 [4], partner 0.0156 µg/mL | – | – | 0.864 | 0.889 | 0.794 | –
S. aureus DSM 20231 [4], partner 0.0312 µg/mL | – | – | 0.768 | 0.716 | 0.721 | –
S. aureus DSM 20231 [4], partner 0.0625 µg/mL | – | – | 0.502 | 0.501 | 0.537 | –
S. aureus Newman [6], partner 0.0156 µg/mL | 0.863 | 0.82 | 0.785 | – | – | –
S. aureus Newman [6], partner 0.0312 µg/mL | 0.752 | 0.751 | 0.768 | – | – | –
S. aureus Newman [6], partner 0.0625 µg/mL | 0.656 | 0.664 | 0.674 | – | – | –
S. pneumoniae D39V [5], partner 0.005 µg/mL | – | – | – | ≥ 1 | 0.999 | 0.949
S. pneumoniae D39V [5], partner 0.01 µg/mL | – | – | – | 0.951 | 0.97 | 0.956
S. pneumoniae D39V [5], partner 0.02 µg/mL | – | – | – | 0.904 | 0.908 | 0.895
S. pneumoniae D39V [5], partner 0.04 µg/mL | – | – | – | 0.377 | 0.382 | 0.505

Conditions | Bliss interaction score
B. subtilis 168 [10] | 0.0697
S. aureus DSM 20231 [9] | -0.0408
S. aureus Newman [12] | 0.0785
S. pneumoniae D39V [11] | 0.0877
